This is an account of results in patent US12090146B2, “Substituted-pyridinyl compounds and uses thereof” (Bionomics Limited, priority 2018, dated 2024).

The structures appear in SMILES notation.

One test deals with T1, hKv3.2 (Homo sapiens, UniProt Q96PR1).
T1 construct: expressed in transfected cells
T1 sequence (Q96PR1 1-638): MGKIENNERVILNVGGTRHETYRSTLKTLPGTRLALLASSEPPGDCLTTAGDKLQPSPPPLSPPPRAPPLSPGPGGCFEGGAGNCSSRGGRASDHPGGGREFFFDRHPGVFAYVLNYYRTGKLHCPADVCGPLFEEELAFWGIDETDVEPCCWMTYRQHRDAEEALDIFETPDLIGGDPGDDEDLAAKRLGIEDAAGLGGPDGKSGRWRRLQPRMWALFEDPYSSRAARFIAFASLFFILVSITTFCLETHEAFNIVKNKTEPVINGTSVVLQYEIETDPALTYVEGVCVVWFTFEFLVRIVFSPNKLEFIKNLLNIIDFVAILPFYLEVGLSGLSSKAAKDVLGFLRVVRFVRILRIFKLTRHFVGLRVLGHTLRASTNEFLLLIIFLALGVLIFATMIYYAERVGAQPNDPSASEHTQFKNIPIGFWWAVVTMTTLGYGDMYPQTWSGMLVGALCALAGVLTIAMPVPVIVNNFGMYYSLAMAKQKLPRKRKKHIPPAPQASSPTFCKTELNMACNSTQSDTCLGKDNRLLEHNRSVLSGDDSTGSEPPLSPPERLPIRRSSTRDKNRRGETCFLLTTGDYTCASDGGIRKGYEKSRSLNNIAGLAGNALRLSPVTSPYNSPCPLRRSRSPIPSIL
Description: Automated patch clamp (Patchliner) whole-cell electrophysiology, Kv3.2. The test is classed as cell-based. The conditions noted are these: 10 μM compound, CHO-K1 cells stably expressing hKv3.2; for activation at 10 µM: % potentiation of peak current at −10 mV voltage step vs vehicle; for Kv3.2 Activity at 10 μM Voltage Shift (mV): voltage shift of the IV curve at V1/2. The procedure: (§1) hKv3.1, hKv3.2, hKv3.3, and hKv3.4 were stably expressed in CHO-K1 (Chinese hamster ovary) cells and kept under constant antibiotic selection. For in vitro assays, cells were maintained in appropriate growth medium at 37° C. and 5% CO2 in a humidified incubator.
(§2) hKv3.X expressing cells were plated in T-25 flasks for 3-4 days at 37° C. (no selection antibiotic) prior to use and grown to 80% confluence. Cells were washed twice with PBS (calcium and magnesium free) and detached with a 5-minute treatment at 37° C. with 2-3 mls of Accutase®. Cells were collected, and flask was washed in CHO-SFM II media (Life Technologies Gibco), centrifuged for 2 minutes at ˜110×g and resuspended to obtain a single cell suspension of ˜2-3×10^6 cells/ml.
(§3) The intracellular solution contained the following (in mM): KCl 50, NaCl 10, KF 60, EGTA 20, HEPES 10, adjusted to pH 7.2 with KOH and an osmolarity of 285 mOsmol. Seal enhancer was purchased from Nanion (80 mM NaCl, 3 mM KCl, 10 mM MgCl2, 35 mM CaCl2), 10 mM HEPES, pH7.4, 298 mOsmol. The external solution contained (in mM): NaCl 140, KCl 4, CaCl2) 2, MgCl2 1, HEPES 10, Glucose 5, adjusted to pH7.4 and an osmolarity of 298 mOsmol.
(§4) All compounds were initially tested at 10 uM at a final DMSO concentration of 0.33%. Compounds were dissolved in dimethylsulfoxide (DMSO) at a stock concentration of 30 mM. The compound was further diluted 1:10 to give a stock concentration of 3 mM in DMSO. The final assay solution was diluted 1:300 in External solution to give a final concentration of 10 uM. For the DMSO Control Buffer 30 uL of DMSO was added to 10 mL buffer.
(§5) All electrophysiological recordings were performed at ambient temperature (21-23° C.) using automated patch clamp (Patchliner, Nanion Technologies GmbH) in the whole-cell configuration.
(§6) Cell membrane potentials were held at −80 mV, and currents were evoked by voltage steps (1000 ms duration) from −60 to +60 mV in 10 mV increments. This was performed first with vehicle (0.33% DMSO) and then with 10 uM compound, after a 3-minute incubation period. Data was taken from 4 cells per assay.
(§7) The recordings were analysed and selected using peak current amplitude (>100 pA at the −10 mV voltage step) in the absence of compound to eliminate unsuitable cells from analysis. Peak current amplitude was measured and recorded for each voltage step and data was normalised to the maximum current at +60 mV. The normalised Kv3.x currents following addition of the compound were then compared with the currents recorded prior to compound addition (vehicle control). Positive modulation was determined as % potentiation at the voltage step of −10 mV=[current (cmpd)/current (veh)]*100−100. % potentiation ≥50% was considered acceptable. In addition, voltage shift of the IV curve at V1/2 was measured. V1/2 of ≥−5 mV was also considered acceptable. IV curves were plotted in GraphPad Prism (software version 6.0) and fitted with a Boltzmann equation, where V1/2 is the voltage at half-maximal activation.

In another test the target is T2, hKv3.1 (Homo sapiens, UniProt P48547).
T2 construct: expressed in transfected cells
T2 sequence (P48547 1-511): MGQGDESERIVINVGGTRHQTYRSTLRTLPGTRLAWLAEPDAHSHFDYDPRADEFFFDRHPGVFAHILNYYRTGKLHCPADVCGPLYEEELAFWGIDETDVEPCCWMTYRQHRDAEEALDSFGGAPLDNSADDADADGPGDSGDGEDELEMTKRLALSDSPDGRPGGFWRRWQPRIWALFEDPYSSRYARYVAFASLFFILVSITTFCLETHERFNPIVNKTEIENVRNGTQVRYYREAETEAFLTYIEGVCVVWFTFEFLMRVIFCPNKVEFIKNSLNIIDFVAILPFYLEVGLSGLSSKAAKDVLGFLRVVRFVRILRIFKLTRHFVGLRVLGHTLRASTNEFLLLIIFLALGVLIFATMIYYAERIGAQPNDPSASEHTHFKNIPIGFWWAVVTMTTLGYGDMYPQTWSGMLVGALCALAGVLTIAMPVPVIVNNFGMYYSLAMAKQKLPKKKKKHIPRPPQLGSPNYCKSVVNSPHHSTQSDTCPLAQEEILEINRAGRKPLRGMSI
The test can be described thus: Automated patch clamp (Patchliner) whole-cell electrophysiology, Kv3.1. The test is classed as cell-based. The conditions noted are these: 10 μM compound, CHO-K1 cells stably expressing hKv3.1; for Kv3.1 Activity at 10 μM Potentiation (%): % potentiation of peak current at −10 mV voltage step vs vehicle; for Kv3.1 Activity at 10 μM Voltage Shift (mV): voltage shift of the IV curve at V1/2. The procedure: as §1, §2, §3, §4, §5, §6, §7

As to `CC[C@@]1(C)NC(=O)N(c2ccnc(Oc3ccc4c(c3)CCC4)c2)C1=O` [Example 13, (5R)-5-ethyl-3-(2-indan-5-yloxy-4-pyridyl)-5-methyl-imidazolidine-2,4-dione], at hKv3.2, the activation at 10 µM is 48% and the “Kv3.2 Activity at 10 μM Voltage Shift (mV)” value is −4.48 mV. Also, on hKv3.1, the “Kv3.1 Activity at 10 μM Potentiation (%)” value is on record as 27% and the “Kv3.1 Activity at 10 μM Voltage Shift (mV)” value is reported as −3.9 mV.

In the case of `COc1cc(Oc2cc(N3C(=O)NC4(CCN(C)CC4)C3=O)ccn2)ccc1C` [Example 30, 3-[2-(3-methoxy-4-methyl-phenoxy)-4-pyridyl]-8-methyl-1,3,8-triazaspiro[4.5]decane-2,4-dione], on hKv3.2, the activation at 10 µM is -4% and the “Kv3.2 Activity at 10 μM Voltage Shift (mV)” value was determined as 2.06 mV. At hKv3.1, the “Kv3.1 Activity at 10 μM Potentiation (%)” value amounted to 26% and the “Kv3.1 Activity at 10 μM Voltage Shift (mV)” value is reported as −0.83 mV.

As for `COc1cc(Oc2cc(N3C(=O)NC4(CCCC4)C3=O)ccn2)ccc1C` [Example 33, 3-[2-(3-methoxy-4-methyl-phenoxy)-4-pyridyl]-1,3-diazaspiro[4.4]nonane-2,4-dione], at hKv3.2, the activation at 10 µM is 22% and the “Kv3.2 Activity at 10 μM Voltage Shift (mV)” value is −2.72 mV. In addition, on hKv3.1, the “Kv3.1 Activity at 10 μM Potentiation (%)” value is on record as 64% and the “Kv3.1 Activity at 10 μM Voltage Shift (mV)” value is reported as −5.74 mV.

Consider `COc1cc(Oc2cc(N3C(=O)NC4(CCC4)C3=O)ccn2)ccc1C` [Example 34, 7-[2-(3-methoxy-4-methyl-phenoxy)-4-pyridyl]-5,7-diazaspiro[3.4]octane-6,8-dione], for which, at hKv3.2, the activation at 10 µM came to 25% and the “Kv3.2 Activity at 10 μM Voltage Shift (mV)” value is reported as −1.25 mV. Further, at hKv3.1, the “Kv3.1 Activity at 10 μM Potentiation (%)” value came to 27% and the “Kv3.1 Activity at 10 μM Voltage Shift (mV)” value is −4.19 mV.

As for `O=C1NC2(CCCCC2)C(=O)N1c1ccnc(Oc2ccc3c(c2)OCO3)c1` [Example 35, 3-[2-(1,3-benzodioxol-5-yloxy)-4-pyridyl]-1,3-diazaspiro[4.5]decane-2,4-dione], at hKv3.2, the activation at 10 µM is 55% and the “Kv3.2 Activity at 10 μM Voltage Shift (mV)” value was −3.73 mV. In addition, on hKv3.1, the “Kv3.1 Activity at 10 μM Potentiation (%)” value was 41% and the “Kv3.1 Activity at 10 μM Voltage Shift (mV)” value was −3.4 mV.

In the case of `O=C1NC2(CCCC2)C(=O)N1c1ccnc(Oc2ccc3c(c2)OC(F)(F)O3)c1` [Example 36, 3-[2-[(2,2-difluoro-1,3-benzodioxol-5-yl)oxy]-4-pyridyl]-1,3-diazaspiro[4.4]nonane-2,4-dione], on hKv3.2, the activation at 10 µM was determined as 43% and the “Kv3.2 Activity at 10 μM Voltage Shift (mV)” value is −4.8 mV. Also, on hKv3.1, the “Kv3.1 Activity at 10 μM Potentiation (%)” value came to 85% and the “Kv3.1 Activity at 10 μM Voltage Shift (mV)” value is on record as −6.21 mV.

On to `O=C1NC2(CCC2)C(=O)N1c1ccnc(Oc2ccc3c(c2)OC(F)(F)O3)c1` [Example 37, 7-[2-[(2,2-difluoro-1,3-benzodioxol-5-yl)oxy]-4-pyridyl]-5,7-diazaspiro[3.4]octane-6,8-dione], for which, on hKv3.2, the activation at 10 µM was determined as 63% and the “Kv3.2 Activity at 10 μM Voltage Shift (mV)” value is on record as −3.6 mV. Further, at hKv3.1, the “Kv3.1 Activity at 10 μM Potentiation (%)” value worked out at 90% and the “Kv3.1 Activity at 10 μM Voltage Shift (mV)” value is −5.21 mV.

As for `COc1cc(Oc2cncc(N3C(=O)NC(C)(C)C3=O)c2)ccc1C` [Example 39, 3-[5-(3-methoxy-4-methyl-phenoxy)-3-pyridyl]-5,5-dimethyl-imidazolidine-2,4-dione], at hKv3.2, the activation at 10 µM amounted to 31% and the “Kv3.2 Activity at 10 μM Voltage Shift (mV)” value is −3.78 mV. At hKv3.1, the “Kv3.1 Activity at 10 μM Potentiation (%)” value is reported as 25% and the “Kv3.1 Activity at 10 μM Voltage Shift (mV)” value is −2.77 mV.

As for `CC[C@H]1NC(=O)N(c2cc(Oc3ccc(C)c(OC)c3)ccn2)C1=O` [Example 41, (5R)-5-ethyl-3-[4-(3-methoxy-4-methyl-phenoxy)-2-pyridyl]imidazolidine-2,4-dione], at hKv3.2, the activation at 10 µM was 53% and the “Kv3.2 Activity at 10 μM Voltage Shift (mV)” value is reported as −3.77 mV. Further, on hKv3.1, the “Kv3.1 Activity at 10 μM Potentiation (%)” value is 67% and the “Kv3.1 Activity at 10 μM Voltage Shift (mV)” value is given as −4.46 mV.

Consider `COc1cc(Oc2ccnc(N3C(=O)NC(C)(C)C3=O)c2)ccc1C` [Example 44, 3-[4-(3-methoxy-4-methyl-phenoxy)-2-pyridyl]-5,5-dimethyl-imidazolidine-2,4-dione], for which, at hKv3.2, the activation at 10 µM is 28% and the “Kv3.2 Activity at 10 μM Voltage Shift (mV)” value is −2.81 mV. On hKv3.1, the “Kv3.1 Activity at 10 μM Potentiation (%)” value was 45% and the “Kv3.1 Activity at 10 μM Voltage Shift (mV)” value was −3.03 mV.

Consider `CC[C@@]1(C)NC(=O)N(c2cc(Oc3ccc(C)c(OC)c3)ccn2)C1=O` [Example 45, (5R)-5-ethyl-3-[4-(3-methoxy-4-methyl-phenoxy)-2-pyridyl]-5-methyl-imidazolidine-2,4-dione], for which, on hKv3.2, the activation at 10 µM amounted to 61% and the “Kv3.2 Activity at 10 μM Voltage Shift (mV)” value is −6.69 mV. In addition, at hKv3.1, the “Kv3.1 Activity at 10 μM Potentiation (%)” value stood at 19% and the “Kv3.1 Activity at 10 μM Voltage Shift (mV)” value is on record as −2.36 mV.

Turning to `CC[C@H]1NC(=O)N(c2cccc(Oc3ccc(C)c(OC)c3)n2)C1=O` [Example 48, (5R)-5-ethyl-3-[6-(3-methoxy-4-methyl-phenoxy)-2-pyridyl]imidazolidine-2,4-dione], at hKv3.2, the activation at 10 µM is 61% and the “Kv3.2 Activity at 10 μM Voltage Shift (mV)” value is −5.3 mV. Also, at hKv3.1, the “Kv3.1 Activity at 10 μM Potentiation (%)” value is 62% and the “Kv3.1 Activity at 10 μM Voltage Shift (mV)” value is recorded as −4.26 mV.

As for `CC[C@@]1(C)NC(=O)N(c2cccc(Oc3ccc(C)c(OC)c3)n2)C1=O` [Example 58, (5R)-5-ethyl-3-[6-(3-methoxy-4-methyl-phenoxy)-2-pyridyl]-5-methyl-imidazolidine-2,4-dione], on hKv3.2, the activation at 10 µM was found to be 33% and the “Kv3.2 Activity at 10 μM Voltage Shift (mV)” value is reported as −2.6 mV. For the same compound, on hKv3.1, the “Kv3.1 Activity at 10 μM Potentiation (%)” value came out at 35% and the “Kv3.1 Activity at 10 μM Voltage Shift (mV)” value is reported as −5.32 mV.
